Test [1] has as its system IgA. The experiment in a line: Promoting effect of IgA production (in vivo) <1>: IgA in intestinal lavage fluids. The settings on record: female C57BL/6N mice, oral administration for five days, compared with water administration group. Also on record: species or system mouse. Here is the method: (§1) Animals for the biological activity evaluation were reared as follows. Female C57BL/6N mice for tests were purchased from CLEA Japan, Inc. After the purchase, the mice were acclimated for a week, and then used as the animals for the evaluation test.
(§2) Mouse IgA Quantitation Kit manufactured by Bethyl laboratories, Inc was purchased and the amount of IgA produced was measured. The wash solution or culture supernatant to be measured was placed in a 96-well plate coated with an anti-IgA antibody. After adding various reaction reagents, the absorbance was measured by using a plate reader.
The animals for the evaluation test of (3) above were orally administered with the sample prepared in (1) (b) above for five days, and then sacrificed and the small intestines were removed. Phosphate buffer (5 mL) was passed through the small intestines and the contents of the small intestines and the lavage fluids collected. The collected products were combined and centrifuged, and the amount of IgA in the resulting supernatant was quantified by ELISA.

Test [2] deals with IgA-producing B cells. The experiment in a line: Promoting effect of IgA production (in vivo) <3>: IgA-producing B cells in the peritoneal cavity. Also noted: species or system mouse. The settings on record: female C57BL/6N mice, oral administration for five days, compared with water administration group. Here is the method: as §1
The animals for the evaluation test of (3) above were orally administered with the sample prepared in (1) (b) above for five days. The animals were sacrificed and a laparotomy was performed without breaking the peritoneum. Then, 3 mL of 5% FBS-containing Hank's Balanced Salt Solution was placed in a 5 mL syringe and injected into the peritoneal cavity using a 27G needle. Then, the peritoneum was pressed with fingers to spread the injected solution evenly throughout the peritoneal cavity, followed by collecting the intraperitoneal solution using a 18G needle. The intraperitoneal solution thus collected was centrifuged at 1,500 rpm for five minutes. The resulting supernatant was removed and peritoneal cells were collected. […] Upon completion of treatment, 1×10^4 lymphocytes were analyzed by using a flow cytometer to count the number of IgA-producing B cells which reacted to the anti-mouse CD45 antibody (B220) and the anti-mouse immunoglobulin A antibody.

In test [3] the test system is IgA production. The experiment in a line: Promoting effect on IgA production under LPS stimulation (in vitro) <1>. Type of test: cell-based, mouse. The note with it: spleen lymphocytes, 1 μg/mL Escherichia coli 055-derived LPS, 0.1 mM, compared with no stimulation. Here is the method: (§3) Cells for the biological activity evaluation were prepared as follows. Female C57BL/6N mice for tests were purchased from CLEA Japan, Inc. After the purchase, the mice were acclimated for a week, and then sacrificed and the spleens were taken out. The excised spleens were crushed and passed through a mesh to collect lymphocytes, which were used as the cells for the evaluation test.
as §2
(§4) The lymphocytes obtained from the cells for the evaluation test of (2) above were prepared at 1×10^6 cells/mL with a 10% serum-containing medium and inoculated into a 24-well plate at 1 mL each. Subsequently, Escherichia coli 055-derived lipopolysaccharides (LPS) were added at 1 μg/mL, and then the samples prepared in (1) (b) above were added at 0.1 mM, followed by culturing at 37° C. for 24 hours or three days. Upon completion of culture, the supernatants were collected and the amounts of IL-6 and IgA were measured by ELISA.

The subject of test [4] is IgA production. The experiment in a line: Promoting effect of IgA production (in vitro) <1>. Type of test: cell-based, mouse. The note with it: spleen lymphocytes of female C57BL/6N mice, 0.1 mM, three days at 37° C., compared with other sulfur-containing amino acid compounds. Here is the method:
as §3, §2
The lymphocytes obtained from the cells for the evaluation test of (2) above were prepared at 1×10^6 cells/mL with a 10% serum-containing medium and inoculated into a 24-well plate at 1 mL each, or prepared at 1×10^6 cells/200 μL and inoculated into a 48-well plate at 200 μL each. Subsequently, of the samples prepared in (1) above, those prepared in (1) (a) above were appropriately diluted and added to the 24-well plate so that the final concentration was 4 mg/mL, and those prepared in (1) (b) was added to the 48-well plate at 0.1 mM. After culturing for three days at 37° C., the supernatants were collected and the amount of IgA was measured by ELISA.

The test system of test [5] is IL-6 production. Put plainly: Inhibitory effect on IL-6 production under LPS stimulation (in vitro) <1>. Type of test: cell-based, mouse. The settings on record: spleen lymphocytes, 1 μg/mL Escherichia coli 055-derived LPS, 0.1 mM. Here is the method: as §3
(§5) Mouse IL-6 ELISA Ready-SET-Go! Kit manufactured by eBioscience was purchased and the amount of IL-6 produced was measured. The culture supernatant to be measured was placed in a 96-well plate coated with an anti-IL-6 antibody. After adding various reaction reagents, the absorbance was measured by using a plate reader.
as §4

In test [6] the test system is IgA-producing B cells. Put plainly: Promoting effect of IgA production (in vivo) <2>: IgA-producing B cells in Peyer's patches. Also noted: species or system mouse. The note with it: female C57BL/6N mice, oral administration for five days, compared with water administration group.
Excerpt: as §1
The animals for the evaluation test of (3) above were orally administered with the sample prepared in (1) (b) above for five days, and then sacrificed. The small intestines were removed, from which Peyer's patches were collected. The Peyer's patches were ground, to which Collagenase D was added to give a final concentration of 1 mg/mL and DNAase I was added to give a final concentration of 20 μg/mL. Treatment was continued for 30 minutes while shaking at 37° C., followed by centrifugation at 1,500 rpm. The resulting supernatant was removed. Then, 2 mL of 5% FBS-containing Hank's Balanced Salt Solution containing 5 mM EDTA was added, followed by treatment for five minutes while shaking at 37° C. Upon completion of treatment, the resultant was passed through a 40 μm mesh to remove tissue pieces and collect lymphocytes. […] Upon completion of treatment, 1×10^4 lymphocytes were analyzed by using a flow cytometer to count the number of IgA-producing B cells which reacted to the anti-mouse CD45 antibody (B220) and the anti-mouse immunoglobulin A antibody.

Test [7] relates to IL-6 production. Put plainly: Inhibitory effect on IL-6 production under LPS stimulation (in vitro) <2>. Format: cell-based, mouse. The note with it: spleen lymphocytes, 3 μg/mL Salmonella-derived LPS, 0.3 mM, 24 hours at 37° C. Here is the method:
as §3, §5
The lymphocytes obtained from the cells for the evaluation test of (2) above were prepared at 5×10^6 cells/mL with a 10% serum-containing medium and inoculated into a 48-well plate at 200 μL each. To these cells, chemically synthesized cis-S-1-propenycysteine and trans-S-1-propenycysteine, SAC, and S-1-propenycysteine (a cis/trans mixture) prepared in Production Example 2 were added at a concentration of 0.3 mM in the presence of 3 μg/mL Salmonella-derived lipopolysaccharides (LPS), followed by culturing at 37° C. for 24 hours. Upon completion of culture, the supernatants were collected and the amount of IL-6 was measured by ELISA.

Test [8] concerns IgA production. Put plainly: Promoting effect of IgA production (in vitro) <2>. Type of test: cell-based, mouse. The note with it: spleen lymphocytes of female C57BL/6N mice, 0.03, 0.1 and 0.3 mM, three days at 37° C. Here is the method:
as §3, §2
The lymphocytes obtained from the cells for the evaluation test of (2) above were prepared at 5×10^6 cells/mL with a 10% serum-containing medium and inoculated into a 48-well plate at 200 μL each.
To the cells, chemically synthesized cis-S-1-propenycysteine and trans-S-1-propenycysteine, and S-1-propenycysteine (a cis/trans mixture) prepared in Production Example 2 were added at concentrations of 0.03, 0.1, and 0.3 mM, followed by culturing at 37° C. for three days. Subsequently, the amount of IgA produced in the culture supernatants was measured by ELISA.

This is an account of results in patent US10238616B2, “Immunomodulator” (WAKUNAGA PHARMACEUTICAL CO., LTD., priority 2014, dated 2019).

Molecules are shown by their SMILES.

`CC=CSCC(N)C(=O)O` (centres unmarked) [S-1-propenycysteine, S-1-propenylcysteine]: the “amount of IgA in the intestinal lavage fluids (ELISA), FIG. 3” value in test [1] is reported as “increased”. The “number of IgA-producing B cells in the peritoneal cavity (flow cytometer), FIG. 5” value in test [2] was “increased”. Also, in test [3], the “amount of IgA under LPS stimulation (ELISA), FIG. 6” value is given as “higher promoting effect on IgA production than under no stimulation”. In test [4], the “amount of IgA in culture supernatant (ELISA), FIG. 2” value is listed as “promoted IgA production more strongly than other sulfur-containing amino acid compounds”. In addition, in test [5], the “amount of IL-6 secretion induced by LPS stimulation (ELISA), FIG. 7” value was “reduced”. Moreover, the “number of IgA-producing B cells in Peyer's patches (flow cytometer), FIG. 4” value in test [6] was “increased”. In addition, the “IL-6 secretion induced by LPS stimulation (ELISA), FIG. 9” value in test [7] is on record as “significantly inhibited IL-6 secretion”. Further, the “amount of IgA produced in culture supernatants (ELISA), FIG. 8” value (from here on “amount of IgA produced”) in test [8] was “significantly enhanced IgA production”.

`C/C=C\SC[C@H](N)C(=O)O` [cis-S-1-propenycysteine, cis-S-1-Propenylcysteine]: in test [8], the “amount of IgA produced” value is “virtually did not affect IgA production”.

On to `C/C=C/SC[C@H](N)C(=O)O` [trans isomer, trans-S-1-Propenylcysteine], for which, in test [7], the “IL-6 secretion induced by LPS stimulation (ELISA), FIG. 9” value was “significantly inhibited IL-6 secretion”. Besides, the “amount of IgA produced” value in test [8] is “significantly enhanced IgA production”.
